Measured values as given in ChEMBL document CHEMBL3616471, “Synthesis and in vitro antitumor evaluation of betulin acid ester derivatives as novel apoptosis inducers” (Eur J Med Chem, 2015).
Active and inactive are the calls of the source. No cut-off for these calls is given here.

Key:
MGC-803 [1] = assay: Induction of apoptosis in human MGC803 cells assessed as chromatin condensation at 5 uM after 12 to 48 hrs using Hoechst 33258 staining by fluorescence microscopic analysis; type: functional, cell-based
MGC-803 [2] = assay: Induction of apoptosis in human MGC803 cells assessed as apoptotic cells at 5 uM after 12 to 48 hrs using Hoechst 33258 staining by fluorescence microscopic analysis; type: functional, cell-based
MCF7 [3] = assay: Cytotoxicity against human MCF7 cells after 72 hrs by MTT assay; type: functional, cell-based
MCF7 [4] = assay: Ratio of betulin IC50 to compound IC50 for human MCF7 cells; type: functional
MCF7 [5] = assay: Selectivity index, ratio of IC50 for mouse NIH/3T3 cells to IC50 for human MCF7 cells; type: functional
PC-3 [6] = assay: Ratio of betulin IC50 to compound IC50 for human PC3 cells; type: functional
MGC-803 [7] = assay: Induction of apoptosis in human MGC803 cells assessed as pyknosis at 5 uM after 12 to 48 hrs using acridine orange/ethidium bromide staining by fluorescence microscopic analysis; type: functional, cell-based
A-375 [8] = assay: Cytotoxicity against human A375 cells after 72 hrs by MTT assay; type: functional, cell-based
MGC-803 [9] = assay: Induction of apoptosis in human MGC803 cells assessed as apoptosis ratio at 10 uM using annexin-V and propidium iodide staining by flow cytometry; type: functional, cell-based; settings: TDE = time-dependent effect
PC-3 [10] = assay: Cytotoxicity against human PC3 cells after 72 hrs by MTT assay; type: functional, cell-based
MGC-803 [11] = assay: Induction of apoptosis in human MGC803 cells assessed as cell budding at 5 uM after 12 to 48 hrs using acridine orange/ethidium bromide staining by fluorescence microscopic analysis; type: functional, cell-based
PC-3 [12] = assay: Selectivity index, ratio of IC50 for mouse NIH/3T3 cells to IC50 for human PC3 cells; type: functional
MGC-803 [13] = assay: Induction of apoptosis in human MGC803 cells assessed as apoptotic bodies at 5 uM after 12 to 48 hrs using Hoechst 33258 staining by fluorescence microscopic analysis; type: functional, cell-based
MGC-803 [14] = assay: Induction of apoptosis in human MGC803 cells assessed as formation of nicks in DNA at 5 uM after 48 hrs by TUNNEL assay; type: functional, cell-based
A-375 [15] = assay: Ratio of betulin IC50 to compound IC50 for human A375 cells; type: functional
MGC-803 [16] = assay: Ratio of betulin IC50 to compound IC50 for human MGC803 cells; type: functional
MGC-803 [17] = assay: Induction of apoptosis in human MGC803 cells assessed as membrane blebbing at 5 uM after 12 to 48 hrs using acridine orange/ethidium bromide staining by fluorescence microscopic analysis; type: functional, cell-based
Bcap37 [18] = assay: Selectivity index, ratio of IC50 for mouse NIH/3T3 cells to IC50 for human Bcap37 cells; type: functional
Bcap37 [19] = assay: Ratio of betulin IC50 to compound IC50 for human Bcap37 cells; type: functional
A-375 [20] = assay: Selectivity index, ratio of IC50 for mouse NIH/3T3 cells to IC50 for human A375 cells; type: functional
MGC-803 [21] = assay: Selectivity index, ratio of IC50 for mouse NIH/3T3 cells to IC50 for human MGC803 cells; type: functional
MGC-803 [22] = assay: Induction of apoptosis in human MGC803 cells assessed as apoptosis ratio at 10 uM after 36 hrs using annexin-V and propidium iodide staining by flow cytometry; type: functional
Bcap37 [23] = assay: Cytotoxicity against human Bcap37 cells after 72 hrs by MTT assay; type: functional, cell-based
[24] = Cytotoxicity against mouse NIH/3T3 cells after 72 hrs by MTT assay; type: cell-based; settings: nih3t3, 72 h
MGC-803 [25] = assay: Cytotoxicity against human MGC803 cells after 72 hrs by MTT assay; type: functional, cell-based

C=C(C)[C@@H]1CC[C@]2(COC(=O)CCC(=O)N3CCCCC3)CC[C@]3(C)[C@H](CC[C@@H]4[C@@]5(C)CC[C@H](O)C(C)(C)[C@@H]5CC[C@]43C)[C@@H]12
Activity (MGC-803 [1]): Active | Activity (MGC-803 [2]): Active | Activity (MCF7 [3]): Dose-dependent effect | IC50 (MCF7 [3]; MCF7, 72 h): 5.2 µM | Ratio IC50 (MCF7 [4]): 4 | Ratio IC50 (MCF7 [5]): 6.8 | Ratio IC50 (PC-3 [6]): 4 | Activity (MGC-803 [7]): Active | Activity (A-375 [8]): Dose-dependent effect | IC50 (A-375 [8]; A-375, 72 h): 7.5 µM | Activity (MGC-803 [9]): tde | Activity (PC-3 [10]): Dose-dependent effect | IC50 (PC-3 [10]; PC-3, 72 h): 4.5 µM | Activity (MGC-803 [11]): Active | Ratio IC50 (PC-3 [12]): 7.86 | Activity (MGC-803 [13]): Active | Activity (MGC-803 [14]): Active | Ratio IC50 (A-375 [15]): 4 | Ratio IC50 (MGC-803 [16]): 4 | Activity (MGC-803 [17]): Active | Ratio IC50 (Bcap37 [18]): 6.81 | Ratio IC50 (Bcap37 [19]): 4 | Ratio IC50 (A-375 [20]): 4.72 | Ratio IC50 (MGC-803 [21]): 8.23 | Activity (MGC-803 [22]): 31.11% | Activity (Bcap37 [23]): Dose-dependent effect | IC50 (Bcap37 [23]; Bcap37, 72 h): 5.2 µM | Activity [24]: Non-toxic | Activity (MGC-803 [25]): Dose-dependent effect | IC50 (MGC-803 [25]; MGC-803, 72 h): 4.3 µM
